Data on 6 compounds can be found in patent US11541023B2, “Compounds and compositions for the treatment of neurodegenerative and inflammatory diseases” (SORBONNE UNIVERSITE, priority 2018, dated 2023).

Counter-ions that a name gives are not always drawn.

For series [1], the target named is plasmin (Homo sapiens (Human), UniProt P00747). The experiment in a line: Plasmin enzymatic inhibition test (Boc-QAR-AMC / PAR4 FRET substrate). The conditions noted are these: for inhibition at 10 µM: read-out: % Inhibition at 10 μM.
Series [2] concerns the target KLK1 (Homo sapiens (Human), UniProt P06870). As to the kind of experiment: KLK1 enzymatic inhibition test (Boc-PFR-AMC). The format is biochemical. The conditions noted are these: for inhibition at 10 µM: KLK1 1.6 nM, Boc-PFR-AMC 100 μM, 15 min at 37° C., compound 10 μM; for IC50: KLK1, Boc-PFR-AMC, ni = non-inhibitor. Here is the method: The molecules were tested in order to evaluate their possible inhibitory effect on the enzymatic activity of KLK1. […] The results are presented in Table 4 below; all the inhibitors are reversible.

Series [3] concerns CG4 cell line (rat oligodendrocyte precursor cells), GFP/mCherry. The experiment in a line: Cytotoxicity on GFP/mCherry oligodendrocyte line (Hoechst staining). Format: cell-based. The conditions noted are these: 72 h. How it is done: FIGS. 2 and 3: Evaluation of the cytotoxicity of the compounds 2 and 3 on the GFP/-mCherry oligodendrocyte line. The cell survival was evaluated by measuring the fluorescence intensity of the Hoechst staining compared with the basal control (TB). Each concentration was tested in quadruplicate. Statistics: Mann-Whitney test (p value=0.019). […] Legend—TB: basal control, T+: positive control (9-cis-retinoic acid). The line used is a CG4 cell line, said cell line being rat oligodendrocyte precursor cells (OPCs), and doubly transduced with the GFP gene under the control of the CMV promoter and the mCherry marker gene under the control of a promoter specific for differentiated and mature oligodendrocytes. The mCherry marker is expressed only at the differentiated oligodendrocyte stage and thus makes it possible to test compounds capable of inducing OPC differentiation. The cells were also stained with Hoechst in order to evaluate their viability. The cells are cultured in the proliferation medium described by Louis et al. (Louis et al., J Neurosci Res. 1992 January; 31(1):193-204) during their seeding, and then transferred into a differentiation medium (DMEM/F12, B27, N1, biotin, laminin). The cells are treated with various concentrations of inhibitor for 72 h in 96-well plates, then screened by means of an automated inverted microscope. The experimental controls used are a basal control containing only the differentiation medium and a positive control, 9-cis-retinoic acid, which is known for its effect in inducing OPC differentiation (Huang et al., Nature Neuroscience 14, 45-53 (2011)). Firstly, the cytotoxicity of the compounds is evaluated by virtue of the comparison of the intensity of the Hoechst staining for each experimental condition with respect to the basal control.

In series [4] the test system is primary culture of murine cortical neurons. The experiment in a line: Neurocytotoxicity, XTT cell survival test. The format is cell-based. The conditions noted are these: for % cell survival: 48 h. Here is the method: FIG. 1: Evaluation of the neurocytotoxicity of the compounds 1 (comparative), 2 and 4 (according to the invention). The percentage cell survival was determined by measuring the absorbance at 485 nm for each concentration compared with the controls treated only with complete medium (positive control) or 20% DMSO (negative control). Each concentration was tested in quadruplicate. The neurons were taken from the stage E16 embryos of Swiss females. The cells are seeded at a density of 50 000 cells/well in precoated sterile transparent 96-well plates. The cells are cultured for 48 h in DMEM medium supplemented with 10% fetal calf serum (FCS), penicillin, streptomycin, N2 and B27, at 37° C. under a humid atmosphere with 5% CO2. The cells are then placed in the presence of the compounds described above (10, 25 or 50 μM) or of the DMSO control, and then incubated for 48 h. The medium is then replaced with 100 μl of XTT (0.3 mg·ml^−1) in order to carry out the cell viability test. […] The activity of the mitochondria is determined by measuring the absorbance at 485 nm. The percentage cell survival is calculated by the ratio of the absorbance in the presence of the inhibitor relative to the control condition (DMSO). The molecule is considered to be cytotoxic when the percentage cell survival is less than 80%.

Series [5] has as its target KLK6 (Homo sapiens (Human), UniProt Q92876). The experiment in a line: KLK6 enzymatic inhibition test (fluorogenic/FRET peptide substrates). The conditions noted are these: for inhibition at 10 µM: read-out: % Inhibition at 10 μM.
Where [6] appears, read: plasmin, FRET substrate PAR4, ni = non-inhibitor.

Sequence of plasmin (P00747 581-810 limits assumed): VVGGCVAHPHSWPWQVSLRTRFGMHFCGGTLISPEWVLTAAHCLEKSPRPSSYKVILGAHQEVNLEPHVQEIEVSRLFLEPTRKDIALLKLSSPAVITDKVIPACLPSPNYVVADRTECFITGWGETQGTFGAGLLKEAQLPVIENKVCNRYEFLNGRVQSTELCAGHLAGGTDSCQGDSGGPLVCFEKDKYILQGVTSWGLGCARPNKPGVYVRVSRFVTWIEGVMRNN
Sequence of plasmin (P00747 97-580 partner limits assumed): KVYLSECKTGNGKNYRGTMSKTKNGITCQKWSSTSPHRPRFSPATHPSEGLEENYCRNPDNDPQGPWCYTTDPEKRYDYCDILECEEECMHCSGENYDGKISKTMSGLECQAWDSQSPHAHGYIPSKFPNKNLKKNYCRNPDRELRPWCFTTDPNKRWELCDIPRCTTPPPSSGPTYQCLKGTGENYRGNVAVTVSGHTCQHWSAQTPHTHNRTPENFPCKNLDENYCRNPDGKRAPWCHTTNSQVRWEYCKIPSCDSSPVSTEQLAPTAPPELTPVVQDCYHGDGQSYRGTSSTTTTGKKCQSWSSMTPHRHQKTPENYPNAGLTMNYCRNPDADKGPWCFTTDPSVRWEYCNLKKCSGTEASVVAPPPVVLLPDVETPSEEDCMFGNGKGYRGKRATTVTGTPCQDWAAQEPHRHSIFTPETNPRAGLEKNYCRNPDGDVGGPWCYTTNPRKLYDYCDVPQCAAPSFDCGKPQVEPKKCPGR
Sequence of KLK1 (P06870 25-262): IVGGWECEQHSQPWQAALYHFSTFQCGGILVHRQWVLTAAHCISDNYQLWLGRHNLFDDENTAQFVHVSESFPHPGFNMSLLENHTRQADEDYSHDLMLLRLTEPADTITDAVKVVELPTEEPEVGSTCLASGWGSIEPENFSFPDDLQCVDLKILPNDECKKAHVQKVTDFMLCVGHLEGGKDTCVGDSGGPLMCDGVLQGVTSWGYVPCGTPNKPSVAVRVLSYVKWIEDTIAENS

Regarding `NCc1ccc(NC(=O)c2cc3ccccc3cc2O)cc1` [Compound 3, N-(4-(Aminomethyl)phenyl)-3-hydroxy-2-naphthamide hydrochloride], the inhibition at 10 µM in series [1] came to 81%; in series [2], 77%.

Regarding `COc1ccc2c(O)c(C(=O)Nc3ccc(CN)cc3)ccc2c1` [Compound 5, N-(4-(Aminomethyl)phenyl)-6-methoxy-1-hydroxy-2-naphthamide hydrochloride], the inhibition at 10 µM in series [1] came out at 100%; in series [2], 46.5%.

With `CC(C)(C)c1ccc(O)c(C(=O)Nc2ccc(CN)cc2)c1.Cl` [Compound 1, N-(4-(Aminomethyl)phenyl)-5-tert-butyl-2-hydroxybenzamide hydrochloride, reference compound], the Inhibition type entry is on record as “Competitive” in series [1] (plasmin, Boc-QAR-AMC, competitive/noncompetitive by Dixon method) and “Competitive” in series [5] (KLK6, Boc-QAR-AMC, competitive/noncompetitive by Dixon method). The IC50 result in series [1] (setting [6]) was “ni”; in series [1] (plasmin, substrate Boc-QAR-AMC) it was 17.1 µM; in series [2], “ni”; in series [5] (KLK6, FRET substrate MBP3), 39.8 µM; in series [5] (KLK6, FRET substrate PAR2), 21.7 µM; in series [5] (KLK6, substrate Boc-QAR-AMC), 9.06 µM. Moreover, the Ki in series [1] (plasmin, substrate Boc-QAR-AMC, Dixon method) amounted to 14.4 µM; in series [5] (KLK6, substrate Boc-QAR-AMC, Dixon method), 4.44 µM. In addition, the “Inhibition type (reversibility)” value is reported as “reversible” in series [1] (plasmin, dilution method) and “reversible” in series [5] (KLK6, dilution method). Also, the inhibition at 10 µM in series [1] came out at 39.3%; in series [2], 32.8%; in series [5], 51%. The “Concentrations at which toxicity is exhibited” value in series [3] (oligodendrocyte line) was “above 10 μM”. Further, the “% cell survival” value in series [4] (10 μM) is listed as more than 80%. Besides, in series [4] (10, 25 and 50 μM), the Neurocytotoxicity result is on record as “dose-dependent effect”.

Turning to `Cl.NCc1ccc(NC(=O)c2ccc3ccccc3c2O)cc1` [Compound 2, N-(4-(Aminomethyl)phenyl)-1-hydroxy-2-naphthamide hydrochloride], the results for the inhibition at 10 µM in series [1], in series [2] and in series [5] were 97.4%, 47.7% and 77.2%, respectively. The IC50 result in series [2] is “ni”. The “Cytotoxicity (Hoechst staining relative to basal control)” value in series [3] (all concentrations tested) is given as “not cytotoxic”. For the same compound, the “% cell survival” value in series [4] (10 μM) was more than 80%; in series [4] (25 μM), more than 90%; in series [4] (second statement printed as 25 μM (presumably 50 μM)), more than 90%.

In the case of `CC(C)c1ccc(C(=O)Nc2ccc(CN)cc2)c(O)c1` [Compound 6, N-(4-(Aminomethyl)phenyl)-4-isopropyl-2-hydroxybenzamide hydrochloride], the figures for the inhibition at 10 µM in series [1], in series [2] and in series [5] were 70.2%, 57.7% and 84.7%, respectively.

In the case of `Cc1ccc(C(=O)Nc2ccc(CN)cc2)c(O)c1.Cl` [Compound 4, N-(4-(Aminomethyl)phenyl)-4-methyl-2-hydroxybenzamide hydrochloride], the IC50 entry in series [1] (setting [6]) is “ni”. For the same compound, the figures for the inhibition at 10 µM in series [1], in series [2] and in series [5] were 54.3%, 61.7% and 68.8%, respectively. For the same compound, the Cytotoxicity entry in series [3] (between 2 and 12 μM) is listed as “does not exhibit any toxicity”. The “% cell survival” value in series [4] (10 μM) is on record as more than 80%; in series [4] (25 μM) it was more than 90%.

A word on the inhibition: it is the percentage by which the read-out fell short of the control. One may read the IC50 as the midpoint of a concentration-inhibition curve. A high value points to lower potency. The Ki is a measure of affinity in units of concentration, obtained from inhibition or displacement.
